Data: ChEMBL document CHEMBL3407468, “Novel 5-substituted pyrrolo[2,3-d]pyrimidines as dual inhibitors of glycinamide ribonucleotide formyltransferase and 5-aminoimidazole-4-carboxamide ribonucleotide formyltransferase and as potential antitumor agents” (J Med Chem, 2015)
Calls of active or inactive are those of the source. The rule behind the calls is not given here.

What was measured:
R2 = assay: Cytotoxicity against RFC-deficient Chinese hamster R2 cells assessed as growth inhibition after 96 hrs by CellTiter-Blue assay; assay type: cell-based; settings: Cricetulus griseus, R2, 96 h
[1] = Cytotoxicity against PCFT-deficient Chinese hamster R2(VC) cells assessed as growth inhibition after 96 hrs by CellTiter-Blue assay; assay type: cell-based; settings: Cricetulus griseus
KB [2] = assay: Antiproliferative activity against human KB cells expressing RFC/FRalpha/PCFT after 96 hrs by CellTiter-Blue assay; assay type: functional, cell-based
[3] = biological target: Bifunctional purine biosynthesis protein ATIC (Homo sapiens) (UniProt P31939); assay: Inhibition of AICARFTase in human KB cells expressing RFC/FRalpha/PCFT assessed as cell growth inhibition at 1 to 1000 nM after 96 hrs by CellTiter-Blue assay in presence of 320 uM AICA; assay type: cell-based
Bifunctional purine biosynthesis protein ATIC (Homo sapiens), sequence (P31939 whole entry, looked up): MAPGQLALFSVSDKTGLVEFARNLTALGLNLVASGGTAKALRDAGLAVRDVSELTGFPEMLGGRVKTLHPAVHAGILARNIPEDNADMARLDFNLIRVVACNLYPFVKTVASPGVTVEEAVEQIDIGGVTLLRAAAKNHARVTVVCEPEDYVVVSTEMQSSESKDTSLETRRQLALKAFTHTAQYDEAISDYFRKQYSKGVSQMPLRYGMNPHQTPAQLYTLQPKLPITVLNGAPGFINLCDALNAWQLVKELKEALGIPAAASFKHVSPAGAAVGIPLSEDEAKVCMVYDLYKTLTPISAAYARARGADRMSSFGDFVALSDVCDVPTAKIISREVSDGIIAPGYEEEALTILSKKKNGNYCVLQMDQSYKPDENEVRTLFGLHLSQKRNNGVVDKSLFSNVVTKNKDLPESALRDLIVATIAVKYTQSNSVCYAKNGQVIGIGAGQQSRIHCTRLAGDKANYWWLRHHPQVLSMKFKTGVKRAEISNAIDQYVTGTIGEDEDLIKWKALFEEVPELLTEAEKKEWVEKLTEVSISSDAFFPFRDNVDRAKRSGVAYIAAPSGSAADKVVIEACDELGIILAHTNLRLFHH

[4] = biological target: T1, GAR transformylase/AICAR transformylase (Homo sapiens) (UniProt P31939+P22102); settings: KB, at 1 to 1000 nM
T1 sequence (P31939 whole entry, looked up, one chain of several): as the sequence (P31939 whole entry, looked up) above
Description: Inhibition of GARFTase/AICARFTase in human KB cells expressing RFC/FRalpha/PCFT assessed as cell growth inhibition at 1 to 1000 nM after 96 hrs by CellTiter-Blue assay in presence of 60 uM adenosine

[5] = biological target: T1, GAR transformylase/AICAR transformylase (Homo sapiens); settings: KB, at 1 to 1000 nM; remark: listed apart in the source
Description: Inhibition of GARFTase/AICARFTase in human KB cells expressing RFC/FRalpha/PCFT assessed as cell growth inhibition at 1 to 1000 nM after 96 hrs by CellTiter-Blue assay in presence of 10 uM thymidine

KB [6] = assay: Antiproliferative activity against human KB cells expressing RFC/FRalpha/PCFT after 96 hrs by CellTiter-Blue assay in presence of 200 nM folic acid; assay type: functional, cell-based
[7] = biological target: T2, Trifunctional purine biosynthetic protein adenosine-3 (Homo sapiens, UniProt P22102); assay: Inhibition of GARFTase in human KB cells expressing RFC/FRalpha/PCFT assessed as incorporation of [U-14C]-glycine into [14C]-formyl glycinamide ribonucleotide incubated for 1 hr followed by [U-14C]-glycine addition measured after 16 hrs; assay type: cell-based
T2 sequence (P22102 whole entry): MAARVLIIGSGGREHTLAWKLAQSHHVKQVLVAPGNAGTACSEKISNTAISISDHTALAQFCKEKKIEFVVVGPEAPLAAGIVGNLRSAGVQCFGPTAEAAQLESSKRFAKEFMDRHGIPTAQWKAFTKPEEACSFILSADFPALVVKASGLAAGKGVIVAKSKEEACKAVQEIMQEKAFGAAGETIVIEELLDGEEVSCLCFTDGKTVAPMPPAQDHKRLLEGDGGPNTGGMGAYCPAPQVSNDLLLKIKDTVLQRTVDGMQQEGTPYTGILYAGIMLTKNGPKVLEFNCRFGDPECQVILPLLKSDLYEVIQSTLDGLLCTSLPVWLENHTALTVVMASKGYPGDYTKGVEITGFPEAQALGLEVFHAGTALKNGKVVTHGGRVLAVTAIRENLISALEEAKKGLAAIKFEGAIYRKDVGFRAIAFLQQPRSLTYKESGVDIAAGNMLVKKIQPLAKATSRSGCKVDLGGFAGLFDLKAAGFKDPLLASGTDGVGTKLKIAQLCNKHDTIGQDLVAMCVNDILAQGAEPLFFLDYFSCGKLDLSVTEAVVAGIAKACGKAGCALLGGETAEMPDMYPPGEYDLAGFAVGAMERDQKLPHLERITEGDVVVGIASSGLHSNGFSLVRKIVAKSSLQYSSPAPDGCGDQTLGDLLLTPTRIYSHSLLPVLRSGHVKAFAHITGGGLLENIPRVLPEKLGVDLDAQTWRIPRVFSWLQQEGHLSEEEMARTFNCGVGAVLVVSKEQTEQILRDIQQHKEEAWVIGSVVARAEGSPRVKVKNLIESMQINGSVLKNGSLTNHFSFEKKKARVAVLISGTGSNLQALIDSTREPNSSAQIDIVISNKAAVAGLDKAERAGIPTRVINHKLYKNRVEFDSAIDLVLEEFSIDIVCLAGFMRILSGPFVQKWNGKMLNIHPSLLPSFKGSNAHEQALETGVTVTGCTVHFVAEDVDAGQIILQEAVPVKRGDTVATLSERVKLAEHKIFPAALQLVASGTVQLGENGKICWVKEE

Row | Compound | IC50 (KB [2]) | inhibition [3] | inhibition [4] | inhibition [5] | IC50 (R2) | IC50 [1] | Activity (KB [6]) | IC50 [7]
1 | Nc1nc2[nH]cc(CCc3ccc(C(=O)N[C@@H](CCC(=O)O)C(=O)O)s3)c2c(=O)[nH]1 | 875 nM | – | – | – | > 1000 nM | > 1000 nM | – | –
2 | Nc1nc2[nH]cc(CCCc3ccc(C(=O)N[C@@H](CCC(=O)O)C(=O)O)s3)c2c(=O)[nH]1 | 211 nM | Active | inactive | Active | > 1000 nM | > 1000 nM | – | –
3 | Nc1nc2[nH]cc(CCCCCCc3ccc(C(=O)N[C@@H](CCC(=O)O)C(=O)O)s3)c2c(=O)[nH]1 | > 1000 nM | – | – | – | > 1000 nM | > 1000 nM | – | –
4 | Nc1nc2[nH]c(CCCCc3ccc(C(=O)N[C@@H](CCC(=O)O)C(=O)O)s3)cc2c(=O)[nH]1 | – | inactive | – | – | > 1000 nM | > 1000 nM | – | 3.13 nM

More lines, main results first:

Row | IC50 (KB [2]) | inhibition [3] | inhibition [4] | inhibition [5] | Compound | IC50 (R2) | IC50 [1] | Activity (KB [6]) | IC50 [7]
5 | > 1000 nM | – | – | – | Nc1nc2[nH]cc(Cc3ccc(C(=O)N[C@@H](CCC(=O)O)C(=O)O)s3)c2c(=O)[nH]1 | > 1000 nM | > 1000 nM | – | –
6 | 41.7 nM | inactive | inactive | Active | Nc1nc2[nH]cc(CCCCCc3ccc(C(=O)N[C@@H](CCC(=O)O)C(=O)O)s3)c2c(=O)[nH]1 | > 1000 nM | > 1000 nM | inactive | –
7 | 66 nM | Active | inactive | Active | Nc1nc2[nH]cc(CCCCc3ccc(C(=O)N[C@@H](CCC(=O)O)C(=O)O)s3)c2c(=O)[nH]1 | > 1000 nM | > 1000 nM | inactive | 61 nM
